Publication PMC11409059, “Substitution of Glu378 in EF-Tu disrupts binding to KKL-55” (microPublication Biology, 2024)

Target: EF-Tu (6His-tagged EF-Tu, tufA) (Escherichia coli, UniProt P0CE47, E379A)
Test: biochemical

With `CCCn1nnnc1NC(=O)c1cccc(Cl)c1` [KKL-55] the Kd was 2400 nM.
